Reference: patent US20240108641A1, “COMPOSITIONS FOR ORAL ADMINISTRATION OF ZOLEDRONIC ACID OR RELATED COMPOUNDS FOR TREATING DISEASE” (ANTECIP BIOVENTURES II LLC, priority 2012, published 2024)

Experiments:
[1] = tested on: knee pain (knee osteoarthritis and knee bone marrow lesions); experiment: clinical study in knee osteoarthritis with bone marrow lesions, VAS pain; format: in vivo, human; settings: 5 mg intravenous; for average VAS scores decreased from baseline: 3 months; for average VAS scores reduced as compared to placebo: three months
Text: Some embodiments related to joint pain, bone marrow lesions, and osteoarthritis were conceived as a result of analyzing data from a clinical study. Some of the results of this study were reported by Laslett et al. in Ann Rheum Dis 2012; 71:1322-1328. Some of the description and data reported below was not published prior to filing the present application. Fifty-two (52) patients with clinical knee osteoarthritis and knee bone marrow lesions (BML) were randomized to receive either intravenous zoledronic acid (5 mg) or placebo in a double blind fashion. All patients had to have at least one bone marrow lesion (BML) in the affected knee on magnetic resonance imaging (MRI). All patients had x-ray of the knee for determination of joint space narrowing (JSN), which was graded according to the Osteoarthritis Research Society International (OARSI) atlas. Patients had either no joint space narrowing (OARSI Grade 0), or greater degrees of joint space narrowing (OARSI Grade 1 and Grade 2). Twenty six patients were treated with zoledronic acid (8, 6, and 12 with OARSI Grades 0, 1, and 2, respectively). Twenty six patients received placebo (8, 8, and 10 with OARSI Grades 0, 1 and 2, respectively).
Pain intensity was assessed at baseline and at three months, using a 100 mm visual analog scale (VAS), with zero representing no pain and 100 representing extreme pain. The change in pain intensity from baseline to 3 months was calculated.

[2] = tested on: complex regional pain syndrome (CRPS); experiment: rat tibia fracture model of complex regional pain syndrome, dosing from day of fracture; format: in vivo
Method: The effect of orally administered zoledronic acid was examined in the rat tibia fracture model of complex regional pain syndrome (CRPS). CRPS was induced in the rats by fracturing the right distal tibias of the animals and casting the fractured hindpaws for 4 weeks, as described in Guo T Z et al. (Pain. 2004; 108: 95-107).
Animals were orally administered either vehicle (control) or zoledronic acid, in a dosage of 18 mg/m^2/day (3 mg/kg/day) for 28 days, starting on the day of fracture and casting. Drug was dissolved in distilled water and administered by gavage. Animals were fasted for 4 hours before and 2 hours after dosing. At the end of the 28-day period, casts were removed, and on the following day, the rats were tested for hindpaw pain, edema, and warmth.
Pain was assessed by measuring hyperalgesia, and weight bearing.
To measure hyperalgesia, an up-down von Frey testing paradigm was used. Rats were placed in a clear plastic cylinder (20 cm in diameter) with a wire mesh bottom and allowed to acclimate for 15 minutes. The paw was tested with one of a series of eight von Frey hairs ranging in stiffness from 0.41 g to 15.14 g. The von Frey hair was applied against the hindpaw plantar skin at approximately midsole, taking care to avoid the tori pads. The fiber was pushed until it slightly bowed and then it was jiggled in that position for 6 seconds. Stimuli were presented at an interval of several seconds. Hindpaw withdrawal from the fiber was considered a positive response. […]
An incapacitance device (IITC Inc. Life Science, Woodland, CA, USA) was used to measure hindpaw weight bearing, a postural effect of pain. […] Eight readings (excluding the highest and lowest ones) were averaged to calculate the bilateral hindpaw weight-bearing values. Weight bearing data were analyzed as the ratio between right (fracture) and left hindpaw weight bearing values ((2R/(R+L))×100%). […]
The temperature of the hindpaw was measured using a fine wire thermocouple (Omega, Stanford, CT, USA) applied to the paw skin. […]

[3] = 18 mg/m^2/day oral for 28 days from fracture

O=P(O)(O)C(O)(Cn1ccnc1)P(=O)(O)O [zoledronic acid]
average VAS scores decreased from baseline ([1]; OARSI Grade 0): approximately 25 mm | average VAS scores decreased from baseline ([1]; OARSI Grade 1): ~21 mm | average VAS scores decreased from baseline ([1]; OARSI Grade 2): 9 mm | Pain Reduction Compared to Placebo at Three Months, VAS Change ([1]; All patients): −4.8 mm | Change in VAS Pain Scores at Three Months ([1]; Baseline VAS < 50 mm): −7.3 mm | Change in VAS Pain Scores at Three Months, Difference from Placebo ([1]; Baseline VAS < 50 mm): −0.6 mm | Change in VAS Pain Scores at Three Months ([1]; Baseline VAS ≥ 50 mm): −26.2 mm | Change in VAS Pain Scores at Three Months, Difference from Placebo ([1]; Baseline VAS ≥ 50 mm): −9.0 mm | Pain Reduction Compared to Placebo at Three Months, VAS Change ([1]; Baseline VAS ≥ 50 mm + OARSI Grade 0): −19.4 mm | Change in VAS Pain Scores at Three Months ([1]; OARSI Grade 0): −24.6 mm | Change in VAS Pain Scores at Three Months, Difference from Placebo ([1]; OARSI Grade 0): −15.0 mm | Change in VAS Pain Scores at Three Months ([1]; OARSI Grades 1-2): −13.2 mm | Change in VAS Pain Scores at Three Months, Difference from Placebo ([1]; OARSI Grades 1-2): −0.28 mm | average VAS scores reduced as compared to placebo ([1]; OARSI Grade 0): 15 mm | average VAS scores reduced as compared to placebo ([1]; OARSI Grades 1-2): 0.28 | average VAS scores reduced as compared to placebo ([1]; baseline VAS 50 mm): 9 mm | average VAS scores reduced as compared to placebo ([1]; baseline VAS<50 mm): 0.6 | overall effect compared to vehicle treated animals ([2]; 18 mg/m^2/day (3 mg/kg/day) oral for 28 days from fracture): reversed pain, restored weight bearing, and prevented edema | hindlimb weight bearing [2, 3]: 86 % of normal | reversal of fracture induced pain (von Frey) as compared to vehicle [2, 3]: 77%
